In patent US12209102B2, “Heterocyclic compounds and uses thereof” (Kumquat Biosciences Inc., priority 2022, dated 2025) one finds IC50 data, which are given here for eleven molecules.

For test [1], the system named is GP2D cells. Nature of the test: Ras cellular assay, growth of cells with K-Ras G12D mutation (CellTiter-Glo). Format: cell-based. The note with it: cell growth, Example 9, G12D mutation, read-out: IC50 against GP2D cells.
Test [2] relates to SW620 cells. The test can be described thus: Ras cellular assay, growth of cells with K-Ras G12V mutation (CellTiter-Glo). Format: cell-based. The note with it: Homo sapiens, SW-620; cell growth, Example 9, G12V mutation; read-out: IC50 against SW620 cells. The gist of the method: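 SW620 (K-Ras G12V) cells, e.g. 800/well in RPMI-1640 with 10% heat-inactivated FBS on standard or ultra-low attachment plates, were dosed the day after plating with e.g. a 10-point 3-fold series. Viability by CellTiter-Glo luminescence about 6 days later; IC50 from four-parameter fit.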
On the technique in general: ATP-based viability assays read luminescence as a measure of living cells.

In test [3] the target is T1, K-Ras G12V (Homo sapiens, UniProt P01116, G12V).
T1 construct: made in house; host or cells: E. coli BL21 (DE3)
T1 sequence (P01116 1-188 isoform P01116-2 G12V): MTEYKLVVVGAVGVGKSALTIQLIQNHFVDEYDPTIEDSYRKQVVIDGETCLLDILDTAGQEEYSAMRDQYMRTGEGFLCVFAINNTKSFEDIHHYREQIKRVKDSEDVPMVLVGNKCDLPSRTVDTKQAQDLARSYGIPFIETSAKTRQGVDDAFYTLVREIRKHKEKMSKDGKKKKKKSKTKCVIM
Nature of the test: HTRF resonance energy transfer assay, K-Ras G12V / SOS1 interaction. The test is classed as biochemical. The note with it: HTRF assay of Example 5; read-out: IC50 against K-Ras G12V. The gist of the method: (§1)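 Read-out: HTRF 665/620 nm ratio (excitation 337 nm) after roughly 10 min or longer incubation, used to derive IC50. Donor anti-GST-Eu on GST-K-Ras; acceptor anti-6His-XL665 on His-hSOS1. Duplicate dose series from 10 μM down to 0.01 μM.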
Background: In TR-FRET formats the signal depends on donor and acceptor labels being close together.

Test [4] has as its target T2, K-Ras WT (Homo sapiens, UniProt P01116).
T2 construct: made in house; host or cells: E. coli BL21 (DE3)
The test can be described thus: HTRF resonance energy transfer assay, K-Ras WT / SOS1 interaction. The test is classed as biochemical. Particulars: HTRF assay of Example 5; read-out: IC50 against K-Ras WT. The gist of the method: as §1

Test [5] has as its target T3, K-Ras G12D (Homo sapiens, UniProt P01116, G12D).
T3 construct: made in house; host or cells: E. coli BL21 (DE3)
The test can be described thus: HTRF resonance energy transfer assay, K-Ras G12D / SOS1 interaction. Format: biochemical. The note with it: HTRF assay of Example 5; read-out: IC50 against K-Ras G12D. A digest of the protocol: as §1

Test [6] concerns the target T4, K-Ras G12S (Homo sapiens, UniProt P01116, G12S).
T4 construct: made in house; host or cells: E. coli BL21 (DE3)
The test can be described thus: HTRF resonance energy transfer assay, K-Ras G12S / SOS1 interaction. Format: biochemical. The note with it: HTRF assay of Example 5; read-out: IC50 against K-Ras G12S. A digest of the protocol:
as §1

T2 sequence (P01116 1-188 isoform P01116-2): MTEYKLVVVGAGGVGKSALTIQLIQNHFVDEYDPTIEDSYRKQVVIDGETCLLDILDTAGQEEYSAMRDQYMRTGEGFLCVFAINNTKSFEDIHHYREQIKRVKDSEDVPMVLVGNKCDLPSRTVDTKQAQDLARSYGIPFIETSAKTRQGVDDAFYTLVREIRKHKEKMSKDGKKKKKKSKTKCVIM
T4 sequence (P01116 1-188 isoform P01116-2 G12S): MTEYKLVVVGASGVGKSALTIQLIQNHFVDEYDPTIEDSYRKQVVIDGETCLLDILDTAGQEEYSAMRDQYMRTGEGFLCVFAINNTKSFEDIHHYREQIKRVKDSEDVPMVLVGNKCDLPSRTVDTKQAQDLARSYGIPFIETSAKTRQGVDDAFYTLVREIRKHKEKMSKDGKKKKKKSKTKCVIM
T3 sequence (P01116 1-188 isoform P01116-2 G12D): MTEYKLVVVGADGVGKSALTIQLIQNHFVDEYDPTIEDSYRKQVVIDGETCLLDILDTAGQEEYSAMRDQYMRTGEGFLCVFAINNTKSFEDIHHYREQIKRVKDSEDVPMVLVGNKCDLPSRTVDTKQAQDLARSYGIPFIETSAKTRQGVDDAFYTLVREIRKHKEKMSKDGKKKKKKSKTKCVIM

As to `C[C@H](O)[C@H]1[C@@H](C)Oc2c(Cl)c(-c3ccc(F)c4sc(N)c(C#N)c34)c(F)c3nc(OC[C@@]45CCCN4C[C@H](F)C5)nc(c23)N1CC(F)F` [Compound 911, 2-amino-4-((5S,6R)-8-chloro-4-(2,2-difluoroethyl)-10-fluoro-2-(((2R,7aS)-2-fluorotetrahydro-1H-pyrrolizin-7a(5H)-yl)methoxy)-5-((S)-1-hydroxyethyl)-6-methyl-5,6-dihydro-4H-[1,4]oxazepino[5,6,7-de]quinazolin-9-yl)-7-fluorobenzo[b]thiophene-3-carbonitrile], the IC50 was below 500 nM in test [1]; below 5000 nM in test [2]; below 100 nM in test [3]; below 100 nM in test [4]; below 100 nM in test [5]; below 100 nM in test [6].

Consider `N#Cc1c(N)sc2c(F)ccc(-c3c(Cl)c4c5c(nc(OC[C@@]67CCCN6C[C@H](F)C7)nc5c3F)N(CC(F)F)[C@@H](C(O)C(F)(F)F)CO4)c12` (stereo partly drawn) [Compound 919, 2-amino-4-((5R)-8-chloro-4-(2,2-difluoroethyl)-10-fluoro-2-(((2R,7aS)-2-fluorotetrahydro-1H-pyrrolizin-7a(5H)-yl)methoxy)-5-(2,2,2-trifluoro-1-hydroxyethyl)-5,6-dihydro-4H-[1,4]oxazepino[5,6,7-de]quinazolin-9-yl)-7-fluorobenzo[b]thiophene-3-carbonitrile], for which the IC50 was below 500 nM in test [1]; below 5000 nM in test [2]; below 100 nM in test [3]; below 100 nM in test [4]; below 100 nM in test [5]; below 100 nM in test [6].

For `N#Cc1c(N)sc2c(F)ccc(-c3c(Cl)c4c5c(nc(OC[C@@]67CCCN6C[C@H](F)C7)nc5c3F)N(CC(F)F)C(C3(F)CC3)CO4)c12` (stereo partly drawn) [Compound 943, 2-amino-4-(8-chloro-4-(2,2-difluoroethyl)-10-fluoro-5-(1-fluorocyclopropyl)-2-(((2R,7aS)-2-fluorotetrahydro-1H-pyrrolizin-7a(5H)-yl)methoxy)-5,6-dihydro-4H-[1,4]oxazepino[5,6,7-de]quinazolin-9-yl)-7-fluorobenzo[b]thiophene-3-carbonitrile], the IC50 in test [1] is below 500 nM; in test [2], below 5000 nM; in test [3], below 100 nM; in test [4] it was below 100 nM; in test [5], below 100 nM; in test [6] it was below 100 nM.

Consider `N#Cc1c(N)sc2c(F)ccc(-c3c(Cl)c4c5c(nc(OC[C@@]67CCCN6C[C@H](F)C7)nc5c3F)N(CCC(F)F)[C@@H](C3(O)CC3)CO4)c12` [Compound 986, 2-amino-4-((R)-8-chloro-4-(3,3-difluoropropyl)-10-fluoro-2-(((2R,7aS)-2-fluorotetrahydro-1H-pyrrolizin-7a(5H)-yl)methoxy)-5-(1-hydroxycyclopropyl)-5,6-dihydro-4H-[1,4]oxazepino[5,6,7-de]quinazolin-9-yl)-7-fluorobenzo[b]thiophene-3-carbonitrile], for which the IC50 in test [1] was below 500 nM; in test [2] it was below 5000 nM; in test [3] it was below 100 nM; in test [4] it was below 100 nM; in test [5], below 100 nM; in test [6] it was below 100 nM.

Consider `C[C@@H]1C[C@@H](N2CCOc3c(Cl)c(-c4ccc(F)c5sc(N)c(C#N)c45)c(F)c4nc(OC[C@@]56CCCN5C[C@H](F)C6)nc2c34)CN1` [Compound 1016, 2-amino-4-(8-chloro-10-fluoro-2-(((2R,7aS)-2-fluorotetrahydro-1H-pyrrolizin-7a(5H)-yl)methoxy)-4-((3R,5R)-5-methylpyrrolidin-3-yl)-5,6-dihydro-4H-[1,4]oxazepino[5,6,7-de]quinazolin-9-yl)-7-fluorobenzo[b]thiophene-3-carbonitrile], for which the IC50 is below 500 nM in test [1]; below 5000 nM in test [2]; below 100 nM in test [3]; below 100 nM in test [4]; below 100 nM in test [5]; below 100 nM in test [6].

Take `N#Cc1c(N)sc2c(F)ccc(-c3c(Cl)c4c5c(nc(OC[C@@]67CCCN6C[C@H](F)C7)nc5c3F)N(CC(F)F)[C@@H](C3CC3)CO4)c12` [Compound 1022, 2-amino-4-((S)-8-chloro-5-cyclopropyl-4-(2,2-difluoroethyl)-10-fluoro-2-(((2R,7aS)-2-fluorotetrahydro-1H-pyrrolizin-7a(5H)-yl)methoxy)-5,6-dihydro-4H-[1,4]oxazepino[5,6,7-de]quinazolin-9-yl)-7-fluorobenzo[b]thiophene-3-carbonitrile]: the IC50 in test [1] was below 500 nM; in test [2] it was below 5000 nM; in test [3], below 100 nM; in test [4], below 100 nM; in test [5], below 100 nM; in test [6], below 100 nM.

`N#Cc1c(N)sc2c(F)ccc(-c3c(Cl)c4c5c(nc(OC[C@@]67CCCN6C[C@H](F)C7)nc5c3F)N(C3CCOC3)[C@@H](C3(O)CC3)CO4)c12` (stereo partly drawn) [Compound 1031, 2-amino-4-((5R)-8-chloro-10-fluoro-2-(((2R,7aS)-2-fluorotetrahydro-1H-pyrrolizin-7a(5H)-yl)methoxy)-5-(1-hydroxycyclopropyl)-4-(tetrahydrofuran-3-yl)-5,6-dihydro-4H-[1,4]oxazepino[5,6,7-de]quinazolin-9-yl)-7-fluorobenzo[b]thiophene-3-carbonitrile]: the half-inhibitory concentration (IC50) in test [1] was below 500 nM; in test [2] it was below 5000 nM; in test [3], below 100 nM; in test [4] it was below 100 nM; in test [5], below 100 nM; in test [6] it was below 100 nM.

As for `N#Cc1c(N)sc2c(F)ccc(-c3c(Cl)c4c5c(nc(OC[C@@]67CCCN6C[C@H](F)C7)nc5c3F)N(CCC(F)F)[C@@H](C(F)F)CO4)c12` [Compound 1035, 2-amino-4-((R)-8-chloro-5-(difluoromethyl)-4-(3,3-difluoropropyl)-10-fluoro-2-(((2R,7aS)-2-fluorotetrahydro-1H-pyrrolizin-7a(5H)-yl)methoxy)-5,6-dihydro-4H-[1,4]oxazepino[5,6,7-de]quinazolin-9-yl)-7-fluorobenzo[b]thiophene-3-carbonitrile], the IC50 in test [1] was below 500 nM; in test [2] it was below 5000 nM; in test [3], below 100 nM; in test [4] it was below 100 nM; in test [5] it was below 100 nM; in test [6], below 100 nM.

For `CC(C)(O)[C@H]1COc2c(Cl)c(-c3ccc(F)c4sc(N)c(C#N)c34)c(F)c3nc(OC[C@@]45CCCN4C[C@H](F)C5)nc(c23)N1C1CCOC1` (stereo partly drawn) [Compound 1041, 2-amino-4-((5R)-8-chloro-10-fluoro-2-(((2R,7aS)-2-fluorotetrahydro-1H-pyrrolizin-7a(5H)-yl)methoxy)-5-(2-hydroxypropan-2-yl)-4-(tetrahydrofuran-3-yl)-5,6-dihydro-4H-[1,4]oxazepino[5,6,7-de]quinazolin-9-yl)-7-fluorobenzo[b]thiophene-3-carbonitrile], the IC50 in test [1] was below 500 nM; in test [2], below 5000 nM; in test [3], below 100 nM; in test [4], below 100 nM; in test [5] it was below 100 nM; in test [6], below 100 nM.

Take `C[C@H](O)[C@H]1[C@H](C)Oc2c(Cl)c(-c3ccc(F)c4sc(N)c(C#N)c34)c(F)c3nc(OC[C@@]45CCCN4C[C@H](F)C5)nc(c23)N1CC(F)F` [Compound 1042, 2-amino-4-((5S,6S)-8-chloro-4-(2,2-difluoroethyl)-10-fluoro-2-(((2R,7aS)-2-fluorotetrahydro-1H-pyrrolizin-7a(5H)-yl)methoxy)-5-((S)-1-hydroxyethyl)-6-methyl-5,6-dihydro-4H-[1,4]oxazepino[5,6,7-de]quinazolin-9-yl)-7-fluorobenzo[b]thiophene-3-carbonitrile]: the half-maximal inhibitory concentration (IC50) in test [1] was below 500 nM; in test [2] it was below 5000 nM; in test [3], below 100 nM; in test [4], below 100 nM; in test [5], below 100 nM; in test [6], below 100 nM.

On to `CC(C)(O)C1COc2c(Cl)c(-c3ccc(F)c4sc(N)c(C#N)c34)c(F)c3nc(OC[C@@]45CCCN4C[C@H](F)C5)nc(c23)N1CCC(F)F` (stereo partly drawn) [Compound 1050, 2-amino-4-(8-chloro-4-(3,3-difluoropropyl)-10-fluoro-2-(((2R,7aS)-2-fluorotetrahydro-1H-pyrrolizin-7a(5H)-yl)methoxy)-5-(2-hydroxypropan-2-yl)-5,6-dihydro-4H-[1,4]oxazepino[5,6,7-de]quinazolin-9-yl)-7-fluorobenzo[b]thiophene-3-carbonitrile], for which the IC50 in test [1] was below 500 nM; in test [2], below 5000 nM; in test [3], below 100 nM; in test [4] it was below 100 nM; in test [5] it was below 100 nM; in test [6], below 100 nM.

In general, IC50 refers to the concentration that gives 50% inhibition.
